In the supplement of paper PMC10307832:

Tests used:
Assay in all cases: relative viability (nuclei count vs DMSO), 5 days (fraction); higher = more cells survive
[1] = compound: C1=CC=C(C(=C1)C2=CC=C(C=C2)C3=CSC4=C3C(=C(C(=O)N4)C#N)O)O + CS(=O)(=O)CCNCc1ccc(-c2ccc3ncnc(Nc4ccc(OCc5cccc(F)c5)c(Cl)c4)c3c2)o1 [Lapatinib] (partner 2 µM)
In short: (§1)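 After 5 days of treatment, lung cancer cells in 1536-well plates were fixed and stained in a single step (final 0.05% Triton X-100, 1% formaldehyde, 1 ug/ml Hoechst) and their nuclei counted on 4× images. Treatment had been applied by pin tool the day after seeding as one drug alone or as a fixed anchor-drug dose with five library-drug doses (not always all listed) in √10 steps. Relative viability is the nuclei count of treated wells divided by that of vehicle wells, and values are medians of duplicate plates.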

[2] = compound: C1=CC=C(C(=C1)C2=CC=C(C=C2)C3=CSC4=C3C(=C(C(=O)N4)C#N)O)O + NC(=O)Nc1cc(-c2cccc(F)c2)sc1C(=O)N[C@H]1CCCNC1 [AZD7762] (partner 0.2 µM)
In short: as §1

[3] = compound: O=C(CCCCCCNC(=O)c1cnc(N(c2ccccc2)c2ccccc2)nc1)NO [Ricolinostat] + CC(=O)Nc1cccc(-n2c(=O)n(C3CC3)c(=O)c3c(Nc4ccc(I)cc4F)n(C)c(=O)c(C)c32)c1 [Trametinib] (partner 0.02 µM)
In short: as §1

Ricolinostat + Olaparib = compound: O=C(CCCCCCNC(=O)c1cnc(N(c2ccccc2)c2ccccc2)nc1)NO [Ricolinostat] + O=C(c1cc(Cc2n[nH]c(=O)c3ccccc23)ccc1F)N1CCN(C(=O)C2CC2)CC1 [Olaparib] (partner 8 µM)
In short: as §1

Cell Line	relative viability ([1]; first compound 0.08 µM)	relative viability ([1]; first compound 0.253 µM)	relative viability ([1]; first compound 0.8 µM)	relative viability ([1]; first compound 2.53 µM)	relative viability ([1]; first compound 8 µM)	relative viability ([2]; first compound 0.08 µM)	relative viability ([2]; first compound 0.253 µM)	relative viability ([2]; first compound 0.8 µM)	relative viability ([2]; first compound 2.53 µM)	relative viability ([2]; first compound 8 µM)	relative viability ([3]; first compound 0.08 µM)	relative viability ([3]; first compound 0.253 µM)	relative viability ([3]; first compound 0.8 µM)	relative viability ([3]; first compound 2.53 µM)	relative viability (Ricolinostat + Olaparib; first compound 0.08 µM)	relative viability (Ricolinostat + Olaparib; first compound 0.253 µM)	relative viability (Ricolinostat + Olaparib; first compound 0.8 µM)	relative viability (Ricolinostat + Olaparib; first compound 2.53 µM)
201T	0.979	1.03	1.01	0.849	1.12	0.634	0.616	0.652	0.704	0.717	0.713	0.709	0.689	0.772	0.785	0.845	0.891	0.806
A549	1.01	0.912	1.06	0.971	0.918											0.252	0.286	0.139
A-427	0.917	1.06	1.2	1.03	1.2	0.672	0.81	0.746	0.776	0.716	0.652	0.776	0.723	0.654	0.572	0.762	0.586	0.594
ABC-1	1.52	1.49	1.42	1.13	0.997	0.781	0.881	0.799	0.855	0.827					0.781	1.05	1.08	1.01
BEN	0.577	0.663	0.716	0.87	0.645	0.647	0.692	0.675	0.807	0.73	0.816	0.905	0.828	0.796	1.05	0.995	0.999	1.02
CAL-12T		0.848	0.604	0.617	0.599	0.671	0.653	0.571	0.615	0.648	0.266	0.32	0.456	0.395	0.739	0.732	0.701	0.77
COR-L23	0.772	1.22	0.834	1.11	0.712						0.485	0.582	0.625	0.49	0.247	0.315	0.267	0.168
COR-L 105	0.4	0.353	0.34	0.344	0.345						0.376	0.471	0.547	0.543	0.61	0.686	0.797	0.962
Calu-6	1.03	1.03	1.21	1.27	1.03										0.548	0.526	0.562	0.419
ChaGo-K-1						0.834	0.936	0.904	0.92	0.838	0.894	0.865	0.848	0.802	0.464	0.395	0.364	0.324
EBC-1	0.265	0.226	0.223	0.209	0.173										0.638	0.618	0.571	0.352
EKVX	0.225	0.208	0.201	0.195	0.211	0.696	0.699	0.725	0.746	0.595	0.283	0.282	0.426	0.368	0.638	0.897	0.853	0.836
